Test results published in US20250025438A1, “Derivative of aspartic acid and use thereof in treatment of metabolic diseases such as hepatic fibrosis and non-alcoholic hepatitis” (SHENZHEN JINGTAI TECHNOLOGY CO., LTD., priority 2021, published 2025).

Key:
Assay type in all cases: cell-based
[1] = tested on: COL1A2; assay: In vitro efficacy in semi-activated LX2 cells, qPCR: COL1A2; conditions: Homo sapiens, LX-2, 48 hours, Q-PCR, read-out: COL1A2 mRNA inhibition rate
[2] = tested on: collagen 1; assay: In-vitro liver fibrosis model in activated LX2 cells (TGFβ1), qPCR: collagen 1; conditions: LX-2 cells activated with TGFβ1 (5 ng/mL), 25 μM compound, 24 hours, real-time PCR
Procedure: (§1) This experiment was performed strictly in accordance with the instructions of the Total RNA Kit. The steps were as follows (note: this experiment was performed on ice throughout the entire process, and special RNase-free tips were used throughout the entire process): • 1) The 12-well cell culture plate was taken out from the incubator, the cell culture medium was discarded, the cells were washed twice with 1 mL of 1×PBS, and a negative pressure suction device was used to fully remove PBS; • 2) 350 μL of TRK Lysis Buffer mixture/well was prepared as needed (mixture preparation method: 1 mL of TRKLysis Buffer+20 μL of β-mercaptoethanol), vortexed and mixed well. 350 μL was added to each well of the 12-well cell culture plate, and allowed to stand at room temperature for 5 minutes to fully lyse the cells; • 3) 70% ethanol/well was prepared as needed, vortexed and mixed well. 350 μL was added to each well of the 12-well cell culture plate, mixed well by shaking, and transferred to the spin column (spin column+collection tube were assembled); • 4) Centrifugation was performed at 4° C., 12000 g for 60 sec. […]

[3] = tested on: collagen 3; assay: In-vitro liver fibrosis model in activated LX2 cells (TGFβ1), qPCR: collagen 3; conditions: LX-2 cells activated with TGFβ1 (5 ng/mL), 25 μM compound, 24 hours, real-time PCR
Procedure: as §1

[4] = tested on: α-SMA; assay: In-vitro liver fibrosis model in activated LX2 cells (TGFβ1), qPCR: α-SMA; conditions: LX-2 cells activated with TGFβ1 (5 ng/mL), 25 μM compound, 24 hours, real-time PCR
Procedure: as §1

Row | Structure (SMILES) | inhibition at 50 µM [1] | collagen 1 gene expression inhibition rate [2] | collagen 3 gene expression inhibition rate [3] | α-SMA gene expression inhibition rate [4]
1 | COC(=O)C[C@H](N)C(=O)O [Compound 6] | 1 to 10% | B (B represented that the inhibition rate was 10% to 25%) | A (A represented that the inhibition rate was 25% or above) | A (A represented that the inhibition rate was 25% or above)
2 | COC(=O)[C@@H](N)CC(=O)O [Compound 4] | 1 to 10% | A (A represented that the inhibition rate was 25% or above) | A (A represented that the inhibition rate was 25% or above) | B (B represented that the inhibition rate was 10% to 25%)
